Measured values taken from patent US20140328861A1, “Combination of CRTH2 Antagonist and a Proton Pump Inhibitor for the Treatment of Eosinophilic Esophagitis” (Atopix Therapeutics Limited, priority 2011, published 2014).

Tested on: patients with active eosinophilic esophagitis (esophageal eosinophil load)
Assay: 8 week randomized, double-blind, placebo-controlled study in patients with active eosinophilic esophagitis
Type: in vivo, human
Method: The study was a randomized, double-blind, placebo-controlled, single-center study of (5-fluoro-2-methyl-3-quinolin-2-ylmethyl-indo-1-yl)-acetic acid (OC000459) for 8 weeks in patients with active (≧20 eos/hpf and symptoms), corticosteroid-dependent, and/or -resistant eosinophilic esophagitis (EoE). The study compared patients taking 100 mg of OC000459 twice daily with patients taking a placebo twice daily. The study consisted of 26 patients with 14 patients taking OC000459 and 12 patients taking the placebo. Pre- and post-treatment disease-activity was assessed clinically, endoscopically, histologically, and via biomarkers. The primary endpoint was the reduction of the esophageal eosinophil load.
5. Free of all medications for EoE (including topical steroids) for at least 2 weeks prior to baseline and free of systemic steroids for at least 90 days before screening. A proton-pump inhibitor is allowed if required for treatment of secondary acid reflux.
After an 8-week treatment of active EoE with OC000459, the total mean eosinophil number decreased from 114.7 to 74.2 eos/hpf, whereas under placebo, no reduction was observed (from 102.8 to 99.4 eos/hpf).
A possible explanation for this is that acid reflux may be responsible for the eosinophilic inflammation in the distal esophagus which is consistent with reports that eosinophilia is reduced by PPIs in some patients with EoE (Molina-Infante et al., 2011). […] It is therefore proposed that the combination of CRTH2 antagonists with PPIs will be effective in the treatment of EoE by blocking both the allergic and acid reflux pathways. Three patients were treated with both OC000459 and esomeprazole, either 20 mg or 40 mg once a day.

## Cc1c(Cc2ccc3ccccc3n2)c2cc(F)ccc2n1CC(=O)O [OC000459, (5-fluoro-2-methyl-3-quinolin-2-ylmethyl-indo-1-yl)-acetic acid]
8 weeks, 100 mg twice daily, compared to placebo (FIG. 1)
  effect on eosinophil load, proximal versus distal esophagus: more pronounced in the proximal upper esophagus than in the distal esophagus
Patients with EoE, 8 weeks
  eosinophilic load in the distal esophagus: not
  eosinophilic load in the proximal esophagus: reduces eosinophilic load
Patients with active EoE, 100 mg twice daily, 8 weeks
  total mean eosinophil number, after 8-week treatment: 74.2 eos/hpf
Patients with active EoE, baseline, 100 mg twice daily group
  total mean eosinophil number, before treatment: 114.7 eos/hpf
